Laboratory results as given in US20080194585A1, “Fungicidal Pyrazine Derivatives” (priority 2005, published 2008).
Marks after values point to notes of the source that are not given here.

Assays:
Septoria nodorum = test: Test H: wheat glum blotch, preventive spray on wheat seedlings
Procedure: (the causal agent of wheat glum blotch) and incubated in a saturated atmosphere at 20° C. for 48 h, and then moved to a growth chamber at 22° C. for 5 days, after which disease ratings were made.

Phytophthora infestans = test: whole plant or invertebrate; type: in vivo
[1] = system: Erysiphe graminis f. sp. tritici; test: Test L: wheat powdery mildew, preventive spray on wheat seedlings
Sclerotinia sclerotiorum = test: Test C: cucumber white mold, preventive spray on cucumber seedlings
Rhizoctonia oryzae = test: Test G: turf brown patch, preventive spray on creeping bent grass seedlings
Procedure: (the causal agent of turf brown patch) and incubated in a saturated atmosphere at 27° C. for 24 h, and then moved to a growth chamber at 27° C. for 5 days, after which disease ratings were made.

Pythium aphanidermatum = test: Test A: bluegrass pythium blight, preventive spray on bluegrass seedlings
[2] = system: Puccinia recondita f. sp. tritici; test: Test K: wheat leaf rust, preventive spray on wheat seedlings
Botrytis cinerea = test: Test E: tomato botrytis, preventive spray on tomato seedlings
Plasmopara viticola = test: Test D: grape downy mildew, spray after inoculation of grape seedlings; type: in vivo
From the text: Upon removal, disease ratings were made. […] A dash (-) indicates no test results.

[3] = system: Colletotrichum orbiculare; test: Test B: cucumber Colletotrichum anthracnose, preventive spray on cucumber seedlings
Septoria tritici = test: Test J: wheat leaf blotch, preventive spray on wheat seedlings; type: in vivo
From the text: A dash (-) indicates no test results.

Row | Structure (SMILES) | Test H disease control rating (Septoria nodorum; 200 ppm) | Test F disease control rating (Phytophthora infestans; 200 ppm) | Test L disease control rating ([1]; 200 ppm) | Test C disease control rating (Sclerotinia sclerotiorum; 200 ppm) | Test G disease control rating (Rhizoctonia oryzae; 200 ppm) | Test A disease control rating (Pythium aphanidermatum; 200 ppm) | Test K disease control rating ([2]; 200 ppm) | Test E disease control rating (Botrytis cinerea; 200 ppm) | Test D disease control rating (Plasmopara viticola; 200 ppm) | Test B disease control rating ([3]; 200 ppm) | Test J disease control rating (Septoria tritici; 200 ppm) | Test H disease control rating (Septoria nodorum; 40 ppm (*)) | Test F disease control rating (Phytophthora infestans; 40 ppm (*)) | Test L disease control rating ([1]; 40 ppm (*)) | Test C disease control rating (Sclerotinia sclerotiorum; 40 ppm (*)) | Test G disease control rating (Rhizoctonia oryzae; 40 ppm (*)) | Test A disease control rating (Pythium aphanidermatum; 40 ppm (*)) | Test K disease control rating ([2]; 40 ppm (*)) | Test E disease control rating (Botrytis cinerea; 40 ppm (*)) | Test D disease control rating (Plasmopara viticola; 40 ppm (*)) | other results
1 | COc1ccccc1-c1c(Cl)nc(-n2cccn2)c(=O)n1CC(C)C [compound 176] | 73% | 0% | 0% | 0% | 56% | 0% | 0% | 99% | 4% | 0% | 94% |  |  |  |  |  |  |  |  |  | 
2 | CC(C)(C)CCn1c(-c2c(F)cccc2F)c(Cl)nc(-n2cccn2)c1=O [compound 182] | 0% | 0% | 85% | 0% | 31% | 0% | 85% | 91% | 0% | 0% | 100% |  |  |  |  |  |  |  |  |  | 
3 | Cn1c(-c2c(F)cccc2F)c(Cl)nc(-n2cccn2)c1=O [compound 185] |  |  |  |  |  |  |  |  |  |  |  | 0* % | 0* % | 90* % | 0* % | 0* % | 0* % | 0* % | 81* % | 8* % | Test B disease control rating ([3]; 40 ppm (*)): 0* %; Test J disease control rating (Septoria tritici; 40 ppm (*)): 8* %
4 | CSCC(C)n1c(-c2c(F)cccc2F)c(Cl)nc(-n2cccn2)c1=O (stereo not shown) [compound 198] |  |  |  |  |  |  |  |  |  |  |  | 0* % | 0* % | 0* % | 0* % | 0* % | 0* % | 0* % | 0* % | 8* % | Test B disease control rating ([3]; 40 ppm (*)): 0* %; Test J disease control rating (Septoria tritici; 40 ppm (*)): 0* %
5 | CSCC(C)n1c(-c2c(F)cccc2F)c(Cl)nc(-n2cncn2)c1=O (stereo not shown) [compound 199] |  |  |  |  |  |  |  |  |  |  |  | 0* % | 0* % | 0* % | 0* % | 0* % | 0* % | 0* % | 0* % | 4* % | Test B disease control rating ([3]; 40 ppm (*)): 0* %; Test J disease control rating (Septoria tritici; 40 ppm (*)): 1* %
6 | CC(CS(C)(=O)=O)n1c(-c2c(F)cccc2F)c(Cl)nc(-n2cccn2)c1=O (stereo not shown) [compound 200] |  |  |  |  |  |  |  |  |  |  |  | 0* % | 0* % | 0* % | 0* % | 0* % | 0* % | 0* % | 0* % | 8* % | Test B disease control rating ([3]; 40 ppm (*)): 0* %; Test J disease control rating (Septoria tritici; 40 ppm (*)): 9* %
7 | CC(CS(C)(=O)=O)n1c(-c2c(F)cccc2F)c(Cl)nc(-n2cncn2)c1=O (stereo not shown) [compound 201] |  |  |  |  |  |  |  |  |  |  |  | 0* % | 0* % | 0* % | 0* % | 0* % | 0* % | 0* % | 0* % | 0* % | Test B disease control rating ([3]; 40 ppm (*)): 0* %; Test J disease control rating (Septoria tritici; 40 ppm (*)): 0* %
8 | Cc1cccc(C)c1-c1c(Cl)nc(-n2cccn2)c(=O)n1CC(C)C [compound 202] | 99% | 0% | 99% | 0% | 99% | 45% | 100% | 100% | 12% | 93% | 100% |  |  |  |  |  |  |  |  |  | 
9 | CC(C)Cn1c(C(C)(C)C)c(Cl)nc(-n2cccn2)c1=O [compound 203] | 0% | 0% | 0% | 0% | 0% | 74% | 0% | 0% | 12% | 0% | 0% |  |  |  |  |  |  |  |  |  | 
10 | CC(C)Cn1c(C(C)C)c(Cl)nc(-n2cccn2)c1=O [compound 204] | 0% | 0% | 99% | 0% | 95% | 0% | 98% | 98% | 12% | 0% | 90% |  |  |  |  |  |  |  |  |  | 
11 | Cc1cccc(C)c1-c1c(Cl)nc(-n2cncn2)c(=O)n1CC(C)C [compound 205] | 0% | 0% | 81% | 0% | 85% | 0% | 97% | 100% | 12% | 0% | 100% |  |  |  |  |  |  |  |  |  | 
12 | CC(C)Cn1c(C(C)(C)C)c(Cl)nc(-n2cncn2)c1=O [compound 206] | 0% | 0% | 56% | 0% | 0% | 0% | 0% | 0% | 8% | 0% | 3% |  |  |  |  |  |  |  |  |  | 
13 | CC(C)Cn1c(C(C)C)c(Cl)nc(-n2cncn2)c1=O [compound 207] | 0% | 0% | 95% | 0% | 47% | 0% | 0% | 50% | 8% | 0% | 70% |  |  |  |  |  |  |  |  |  | 
14 | Cc1ccnc(-c2nc(Cl)c(-c3c(F)cccc3F)n(CC(C)C)c2=O)c1 [compound 208] | 69% | 0% | 0% | 0% | 0% | 0% | 88% | 92% | 12% | 46% | 100% |  |  |  |  |  |  |  |  |  | 
